Measured values from PubChem BioAssay AID218 (DTP/NCI, 2004).
Values joined by “and” are separate entries in the source; they are usually repeats but may differ in a detail not shown here. Identical values can stand only once.

Test system: C57BL/6 mice, Adenocarcinoma 755 sc, tumor weight T/C
Experiment: NCI In Vivo Anticancer Drug Screen. Data for tumor model Adenocarcinoma 755 (subcutaneous) in C57BL/6 mice
Conditions: endpoint: mean tumor weight, higher = larger tumour
Experimental: The antitumor activity of compounds was measured in mice bearing transplantable tumors. Survival or tumor size were measured and the results are expressed as the measurement made in the treated group (T) divided by the measurement made in the vehicle treated control group (C). The tumor model used in this assay is Adenocarcinoma 755 (subcutaneous) in C57BL/6 mice

[1] = dose: 40.0 mg/kg/injection, schedule: Q01DX011 (ip), vehicle: saline
[2] = dose: 50.0 mg/kg/injection, schedule: Q01DX011 (ip), vehicle: saline
[3] = dose: 37.5 mg/kg/injection, schedule: Q01DX011 (ip), vehicle: saline
[4] = dose: 75.0 mg/kg/injection, schedule: Q01DX011 (ip), vehicle: saline
[5] = dose: 150.0 mg/kg/injection, schedule: Q01DX011 (ip), vehicle: saline
[6] = dose: 20.0 mg/kg/injection, schedule: Q01DX011 (ip), vehicle: saline
[7] = dose: 30.0 mg/kg/injection, schedule: Q01DX011 (ip), vehicle: saline

O=C(O)CCCc1ccc(N(CCCl)CCCl)cc1
T/C (dose: 1.0 mg/kg/injection, schedule: Q01DX011 (ip), vehicle: saline): 73 % of control | T/C (dose: 4.0 mg/kg/injection, schedule: Q01DX011 (ip), vehicle: saline): 80 % of control | T/C (dose: 8.0 mg/kg/injection, schedule: Q01DX011 (ip), vehicle: saline): 51 % of control | T/C (dose: 16.0 mg/kg/injection, schedule: Q01DX011 (ip), vehicle: saline): 98 % of control

CCN(CC)c1ncnc2[nH]ncc12
T/C [1]: 25 % of control | T/C [2]: 23 % of control

CCC(C)N1C(=O)CCC1=O (stereo not drawn)
T/C (dose: 4.7 mg/kg/injection, schedule: Q01DX011 (ip), vehicle: saline): 102 % of control | T/C (dose: 9.4 mg/kg/injection, schedule: Q01DX011 (ip), vehicle: saline): 103 % of control | T/C (dose: 18.8 mg/kg/injection, schedule: Q01DX011 (ip), vehicle: saline): 123 % of control | T/C [3]: 119 % of control | T/C [4]: 59 % of control | T/C [5]: 95 % of control

Nc1[nH]c(=O)nc2c1ncn2C1OC(CO)C(O)C1O (stereo not drawn)
T/C [6]: 100 % of control | T/C [7]: 42 % of control | T/C [1]: 58 % of control

CCOc1ccccc1C(=O)Nc1ccc(Br)cc1
T/C [4]: 94 % of control | T/C [5]: 98 % of control | T/C (dose: 300.0 mg/kg/injection, schedule: Q01DX011 (ip), vehicle: saline): 75 % of control | T/C (dose: 600.0 mg/kg/injection, schedule: Q01DX011 (ip), vehicle: saline): 51 % of control

NNc1ncnc2nc[nH]c12
T/C [7]: 67 % of control | T/C (dose: 60.0 mg/kg/injection, schedule: Q01DX011 (ip), vehicle: saline): 34 % of control

Nc1nc2n[nH]nc2c(=O)[nH]1
T/C (dose: 37.5 mg/kg/injection, schedule: Q01DX007 (sc), vehicle: carboxymethylcellulose (CMC)): 51 % of control and 66 % of control | T/C [3]: 10 % of control | T/C (dose: 37.5 mg/kg/injection, schedule: Q01DX011 (sc), vehicle: saline): 25 % of control | T/C (dose: 50.0 mg/kg/injection, schedule: Q01DX011 (sc), vehicle: saline): 16 % of control | T/C (dose: 50.0 mg/kg/injection, schedule: Q02DX006 (ip), vehicle: other): 57 % of control | T/C (dose: 60.0 mg/kg/injection, schedule: Q02DX006 (ip), vehicle: other): 64 % of control | T/C [4]: 6 % of control | T/C (dose: 75.0 mg/kg/injection, schedule: Q01DX011 (sc), vehicle: saline): 4 % of control | T/C (dose: 100.0 mg/kg/injection, schedule: Q01DX007 (sc), vehicle: carboxymethylcellulose (CMC)): 5 % of control and 14 % of control

Clc1ccc(N2CCN(CCCN3CCN(c4cccc(Cl)c4)CC3)CC2)cc1
T/C (dose: 7.5 mg/kg/injection, schedule: Q01DX011 (ip), vehicle: carboxymethylcellulose (CMC)): 43 % of control | T/C (dose: 15.0 mg/kg/injection, schedule: Q01DX011 (ip), vehicle: carboxymethylcellulose (CMC)): 38 % of control | T/C (dose: 30.0 mg/kg/injection, schedule: Q01DX011 (ip), vehicle: carboxymethylcellulose (CMC)): 54 % of control

Oc1ccc2ccccc2c1N=Nc1ccc(F)cc1
T/C (dose: 6.25 mg/kg/injection, schedule: Q01DX011 (ip), vehicle: saline): 55 % of control | T/C (dose: 12.5 mg/kg/injection, schedule: Q01DX011 (ip), vehicle: saline): 45 % of control | T/C (dose: 25.0 mg/kg/injection, schedule: Q01DX011 (ip), vehicle: saline): 37 % of control | T/C [2]: 30 % of control and 35 % of control | T/C (dose: 100.0 mg/kg/injection, schedule: Q01DX011 (ip), vehicle: saline): 28 % of control | T/C (dose: 200.0 mg/kg/injection, schedule: Q01DX011 (ip), vehicle: saline): 12 % of control | T/C (dose: 400.0 mg/kg/injection, schedule: Q01DX011 (ip), vehicle: saline): 28 % of control

CCCCn1cnc2c(SSc3ncnc4c3ncn4CCCC)ncnc21
T/C (dose: 3.75 mg/kg/injection, schedule: Q01DX011 (ip), vehicle: saline): 26 % of control | T/C (dose: 7.5 mg/kg/injection, schedule: Q01DX011 (ip), vehicle: saline): 7 % of control | T/C (dose: 15.0 mg/kg/injection, schedule: Q01DX011 (ip), vehicle: saline): 7 % of control | T/C [7]: 6 % of control

Clc1nc(Cl)c2[nH]cnc2n1
T/C [6]: 110 % of control | T/C [1]: 82 % of control

CCCCNc1ncnc2c1cnn2C
T/C [1]: 3 % of control | T/C [2]: 13 % of control
